Converted amounts (≈) assume the structure as drawn. Where two headings read alike, the source gives them in different places. Bridge positions count the residues as written; N and C are the ends. Square brackets hold non-standard residues; d marks the D form. Peptide text beside a SMILES is read from it. * marks the point of attachment. Ileψ(thiazoline)Cys = CC[C@H](C)[C@H](N)C1=N[C@H](C(=O)*)CS1; dOrn = NCCC[C@@H](N)C(=O)O
Experiments:
[1] = tested on: B. subtilis strain BFS2470; test: Concentration-dependent induction/killing experiments; type: cell-based, Bacillus subtilis
Method: Concentration-dependent induction/killing experiments were performed for bacitracin, nisin, ramoplanin and vancomycin as shown in FIG. 7. In all four cases the induction of liaI occurred in a concentration-dependent manner (FIG. 7a), reaching a maximum at an antibiotic concentration of about 10 μg/ml (1 μg/mL for vancomycin). The time of antibiotic addition is indicated by an arrow. The antibiotic concentrations affecting the induction of PliaI according to the β3-galactosidase assay are indicated by white symbols. The corresponding concentrations are: bacitracin ([…]), nisin (50, 70 and 100 μg/ml), ramoplanin (20, 50 and 100 μg/mL) and vancomycin (5, 10, 50 and 100 μg/mL).
This finding correlates well with the bactericidal effects of these antibiotics as inferred from the dramatic decrease of optical density: there is little effect of bacitracin and vancomycin on cell growth during the first 30-60 min after addition even at high concentrations (FIG. 7b).
The cultures were incubated with aeration at 37° C.

[2] = tested on: B. subtilis CU1065 and isogenic deletion mutants; test: Minimal inhibitory concentration (MIC), microtiter-plate assay; type: cell-based, Bacillus subtilis; details: for MIC: Bacillus subtilis
Method: Since B. subtilis is closely related to the bacitracin-producing strains, it seemed likely that a similar system as described for B. licheniformis could exist in CU1065. The identification of two loci encoding ABC transporters that are under the bacitracin-inducible control of a two-component system supported this hypothesis. […] All strains were grown in microtiter-plates for 4 hours after dilution into LB medium containing the indicated concentrations of bacitracin. The experiment was done in triplicate and a representative result is shown. Strains used were: CU1065 (black squares), ‘bacR’ (HB0927, open diamonds), ‘bacAB’ (HB0928, black diamonds), ‘sigM’ (HB0031, open circles), ‘bcrC’ HB0106 (closed circles), ‘bcrC/bacAB’ (HB0937, black triangle). Compare also with Table 1.
Determination of the minimal inhibitory concentration (MIC): MIC-assays were performed in microtiter plates using a ‘Tecan Spectra Rainbow’ microtiter plate reader. […] Tenfold dilution of these cultures were inoculated in a total volume of 200 μl/well with increasing quantities of bacitracin, ranging from 0.01 to 1000 μg/mL (final concentration). The plates were incubated at 37° C. and the O.D.600 was read after 4 hours, when cultures had reached their final cell density. All experiments were performed in triplicate.

CC[C@H](C)[C@H](N)C1=N[C@H](C(=O)N[C@@H](CC(C)C)C(=O)N[C@H](CCC(=O)O)C(=O)N[C@H](C(=O)N[C@H]2CCCCNC(=O)[C@H](CC(N)=O)NC(=O)[C@@H](CC(=O)O)NC(=O)[C@H](Cc3cnc[nH]3)NC(=O)[C@@H](Cc3ccccc3)NC(=O)[C@H]([C@@H](C)CC)NC(=O)[C@@H](CCCN)NC2=O)[C@@H](C)CC)CS1 [Bacitracin] ({Ileψ(thiazoline)Cys}-L[dE]IK[dOrn]I[dF]H[dD]N; lactam 4-C)
lacZ-expression at higher concentration ([1]; FIG. 7a, in words): remained elevated
effect on cell growth / optical density ([1]; high concentrations, FIG. 7b, in words): little effect
antibiotic concentration at maximum induction of liaI ([1]; β-galactosidase assay after 30 min, 0.01 to 100 μg/ml tested): about 10 μg/ml
MIC ([2]; 4 h, read-out: Bacitracin MIC, mutant in bacAB (ytsCD), LB, 4 hours): 10 µg/mL (≈ 7.03 µM)
MIC ([2]; 4 h, read-out: Bacitracin MIC, mutant in bcrC, LB, 4 hours): 25 µg/mL (≈ 17.6 µM)
MIC ([2]; read-out: bacitracin-resistance (MIC), bcrC/bceAB double mutant (HB0937)): 2.5 µg/mL (≈ 1.76 µM)
MIC ([2]; read-out: bacitracin-resistance (MIC), wild type strain (CU1065)): 500 µg/mL (≈ 351 µM)
reduction in MIC compared to CU1065 ([2]; bceAB deletion): 50 fold
reduction in MIC compared to CU1065 ([2]; bceR deletion): 50 fold
decrease of bacitracin-resistance compared to the wild type strain ([2]; bcrC/bceAB double mutant): 200 fold

Source: patent US7309484B2, “Compositions and methods for screening antibacterial compounds” (priority 2003, dated 2007)
